Drawing on patent publication US11286268B1, “EIF4E-inhibiting compounds and methods” (EFFECTOR THERAPEUTICS, INC., priority 2019, dated 2022), this text covers IC50 for 47 compounds.

The target in the assay is recombinant eIF4E (Homo sapiens (Human), UniProt P06730). In words: Fluorescence polarization competition assay for eIF4E binding potency. Summed up: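 Protein and fluorescent cap-analog probe (EDA-m7GDP-ATTO-550) were mixed first for 5 min, after which serially diluted compound was added to final 75 nM eIF4E, 20 nM probe, 1% DMSO. Reactions equilibrated 30 min at room temperature before polarization was measured.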
recombinant eIF4E, sequence (P06730 whole entry): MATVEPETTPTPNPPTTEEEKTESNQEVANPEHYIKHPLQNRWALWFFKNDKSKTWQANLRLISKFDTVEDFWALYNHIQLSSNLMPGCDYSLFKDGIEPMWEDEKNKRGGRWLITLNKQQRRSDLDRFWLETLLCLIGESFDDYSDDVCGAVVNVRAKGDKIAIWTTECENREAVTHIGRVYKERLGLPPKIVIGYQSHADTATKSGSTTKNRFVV

Where [1] appears, read: fluorescence polarization competition, 75 nM recombinant eIF4E, 20 nM EDA-m7GDP-ATTO-550, IC50 class, read-out: elF4E FP.
The mark [2] stands for this setting: inhibition of eIF4E/EDA-m7GDP-ATTO-550 binding by 50%, Table 4B calculated values, read-out: IC50.
Where [3] appears, read: inhibition of eIF4E/EDA-m7GDP-ATTO-550 binding, calculated IC50 values, Table 4B, read-out: IC50.

Like-named read-outs stand apart in the source and are kept apart here.

With `Cc1cc(-c2cc(Cl)ccc2OCCn2c(C)nc3cc(F)c(CN4CCOCC4)c(C#N)c3c2=O)c2scc(C(=O)O)c2n1` [compound 367], the IC50 is < 50 nM under setting [1] and 2.87 nM under setting [2].

Turning to `Cc1nc2c(N3CCN(C)CC(F)(F)C3)ncc(C#N)c2c(=O)n1CCOc1ccc(Cl)cc1-c1ccnc2c(C(=O)O)csc12` [compound 838], the IC50 is < 50 nM under setting [1] and 38.7 nM under setting [2].

Regarding `Cc1nc2cc(C(F)(F)F)cc(C#N)c2c(=O)n1CCOc1ccc(Cl)cc1-c1cn(C)c(=O)c2c(C(=O)O)csc12` [compound 590], the IC50 is < 50 nM under setting [1] and 2.26 nM under setting [2].

In the case of `COC(=O)c1csc2c(-c3cc(Cl)ccc3C#CCn3c(C)nc4cnc(N5CCN(CC(F)F)CC5)c(C#N)c4c3=O)ccnc12` [compound 1404], the IC50 under setting [3] was 482 nM.

On to `Cc1nc2cnc(N3CCC(N(CC(F)F)C4COC4)CC3)c(C#N)c2c(=O)n1CC#Cc1ccc(Cl)cc1-c1ccnc2c(C(=O)NS(=O)(=O)CC(F)F)csc12` [compound 1591], for which the IC50 under setting [3] is 36.2 nM.

As to `Cc1cc(-c2cc(Cl)ccc2OCCn2c(C)nc3cc(C(F)(F)F)c(CN4CC5CCC(C4)N5C)c(C#N)c3c2=O)c2scc(C(=O)O)c2n1` [compound 740], the IC50 was < 50 nM under setting [1] and 39.2 nM under setting [2].

Turning to `Cc1cc(-c2cc(Cl)ccc2OCCn2c(C)nc3cnc(OC(F)F)c(C#N)c3c2=O)c2scc(C(=O)O)c2n1` [compound 602], the IC50 reads like this: under setting [1], < 50 nM; under setting [2], 10.2 nM.

As for `Cc1nc2cc(C(F)(F)F)c(N3CCN(C)CC3)c(C#N)c2c(=O)n1CCSc1ccc(Cl)cc1-c1ccnc2c(C(=O)O)csc12` [compound 1269], under setting [3], the IC50 was 66.6 nM.

`C#Cc1c(C(=O)O)cccc1-c1cc(Cl)ccc1OCCn1c(CF)nc2cc(C#N)cc(C#N)c2c1=O` [compound 232]: the IC50 under setting [1] was < 50 nM and the IC50 under setting [2] is 16.3 nM.

Turning to `Cc1cc(-c2cc(Cl)ccc2OCCn2c(C)nc3cc(C(F)(F)F)c(-c4ccc(F)c(C)n4)c(C#N)c3c2=O)c2scc(C(=O)O)c2n1` [compound 1909], the IC50 under setting [3] is 29.2 nM.

Regarding `Cc1nc2cnc(C3CC3)c(C#N)c2c(=O)n1CCOc1ccc(Cl)cc1Sc1cccc(C(=O)O)n1` [compound 940], the IC50 is 50 to 1000 nM under setting [1] and 470 nM under setting [2].

Consider `Cc1cc(-c2cc(Cl)ccc2OCCn2c(C)nc3cnc(-c4cccc(F)c4)c(C#N)c3c2=O)c2scc(C(=O)O)c2n1` [compound 942], for which the IC50 by setting is: under setting [1], < 50 nM; under setting [2], 6.93 nM.

On to `Cc1nc2cnc(N(C)C3C[C@H]4C[C@@H]3CN4CC(C)(F)F)c(C#N)c2c(=O)n1CCOc1ccc(Cl)cc1-c1ccnc2c(C(=O)O)csc12` (stereo partly drawn) [compound 1688], for which the IC50 under setting [3] was 12.7 nM.

On to `Cc1nc2cc(C(F)(F)F)cc(C#N)c2c(=O)n1CCOc1cnc(C#N)nc1-c1ccnc2c(C(=O)O)csc12` [compound 455], for which the IC50 by setting is: under setting [1], 50 to 1000 nM; under setting [2], 473 nM.

Consider `Cc1nc2cnc(N3CCN(C4CC4)CC3)c(C#N)c2c(=O)n1CC#Cc1ccc(Cl)cc1-c1ccnc2c(C(=O)O)csc12` [compound 1354], for which the IC50 under setting [3] was 21.6 nM.

Take `Cc1cc(-c2cc(Cl)ccc2OCCn2c(C)nc3cc(C(F)(F)F)ccc3c2=O)c2scc(C(=O)O)c2n1` [351b]: the IC50 under setting [2] is 93.6 nM.

In the case of `Cc1nc2cc(C(F)(F)F)c(C3CCNCC3)cc2c(=O)n1CCOc1ccc(Cl)cc1-c1ccnc2c(C(=O)O)csc12` [compound 880], the IC50 was 50 to 1000 nM under setting [1] and 67.9 nM under setting [2].

In the case of `Cc1cc(-c2cc(Cl)ccc2OCCn2c(C)nc3cc(CNC(C)(C)C)c(OC(F)F)c(C#N)c3c2=O)c2scc(C(=O)O)c2n1` [compound 619], the IC50 under setting [1] was < 50 nM and the IC50 under setting [2] was 6.34 nM.

As to `Cc1nc2cc(C(F)(F)F)cc(C#N)c2c(=O)n1CCOc1ccc(Cl)cc1-c1cc(CO)nc2c(C(=O)O)csc12` [compound 484], the IC50 was < 50 nM under setting [1] and 11.6 nM under setting [2].

Turning to `Cc1nc2cc(Cl)c(C(F)F)c(C#N)c2c(=O)n1CCOc1ccc(Cl)cc1-c1ccnc2c(C(=O)O)csc12` [compound 119], the IC50 reads like this: under setting [1], < 50 nM; under setting [2], 19.9 nM.

Consider `Cc1cc(-c2cc(Cl)ccc2OCCn2c(C)nc3cc(C(F)(F)F)c(-c4cnc(C)c(C)n4)c(C#N)c3c2=O)c2scc(C(=O)O)c2n1` [compound 969], for which the IC50 under setting [1] is < 50 nM and the IC50 under setting [2] is 5.56 nM.

As for `Cc1cc(-c2cc(Cl)ccc2OCCn2c(C)nc3c(-c4ccccc4)nc(N4CCN(C)CC4)c(C#N)c3c2=O)c2scc(C(=O)O)c2n1` [compound 1217], the IC50 is < 50 nM under setting [1] and 24.2 nM under setting [3].

For `Cc1nc2cnc(N(C)[C@H]3[C@@H]4C[C@H]3CN(CC(C)(F)F)C4)c(C#N)c2c(=O)n1CC#Cc1ccc(Cl)cc1-c1ccnc2c(C(=O)O)csc12` [compound 1577], under setting [3], the IC50 is 13.3 nM.

As for `Cc1nc2cnc(C(F)(F)C3CCN(CC(F)F)CC3)c(C#N)c2c(=O)n1CC#Cc1ccc(Cl)cc1-c1ccnc2c(C(=O)O)csc12` [compound 1572], the IC50 under setting [3] was 20 nM.

Take `Cc1cc(-c2cc(Cl)ccc2OCCn2c(C)nc3cc(Cl)c(C4CCC4)c(C#N)c3c2=O)c2scc(C(=O)O)c2n1` [compound 1047]: the IC50 by setting is: under setting [1], < 50 nM; under setting [2], 21.2 nM.

With `Cc1c(C#N)c2cc(C(F)(F)F)cc(C#N)c2c(=O)n1CCOc1ccc(Cl)cc1-c1ccnc2c(C(=O)O)csc12` [compound 263], the IC50 under setting [1] is < 50 nM.

Turning to `Cc1nc2cnc(N3CC4(CN(CC(F)(F)F)C4)C3)c(C#N)c2c(=O)n1CCOc1ccc(Cl)cc1-c1ccnc2c(C(=O)O)csc12` [compound 840], the IC50 was < 50 nM under setting [1] and 10.4 nM under setting [2].

Take `Cc1nc2cnc(N(C)C3CCN(CC(F)(F)F)CC3)c(C#N)c2c(=O)n1CC#Cc1ccc(Cl)cc1-c1ccnc2c(C(=O)NS(=O)(=O)C(C)C)csc12` [compound 1538]: the IC50 under setting [3] is 14.5 nM.

`Cc1cc(-c2cc(Cl)ccc2OCCn2c(C)nc3cnc(N(C)C4CCN(CC(C)(F)F)CC4)c(C#N)c3c2=O)c2scc(C(=O)O)c2n1` [compound 1563]: under setting [3], the IC50 is 13 nM.

For `CC(=O)c1nc2c(=O)n(CCOc3ccc(Cl)cc3-c3cc(C)nc4c(C(=O)O)csc34)c(C)nc2cc1C(F)(F)F` [compound 780], the IC50 runs as follows: under setting [1], < 50 nM; under setting [2], 9.6 nM.

`Cc1nc2cc(S(=O)(=O)N(C)C)c(F)c(C#N)c2c(=O)n1CCOc1ccc(Cl)cc1-c1ccnc2c(C(=O)O)csc12` [compound 280]: the IC50 by setting is: under setting [1], < 50 nM; under setting [2], 41.2 nM.

Take `Cc1cc(F)c(-c2c(C(F)(F)F)cc3nc(C)n(CCOc4ccc(Cl)cc4-c4cc(C)nc5c(C(=O)O)csc45)c(=O)c3c2C#N)cn1` [compound 1388]: the IC50 under setting [3] is 36.2 nM.

Turning to `Cc1cc(-c2cc(Cl)ccc2OCCn2c(C)nc3cc(C(F)(F)F)c(-c4ccncc4)nc3c2=O)c2scc(C(=O)O)c2n1` [compound 464], the IC50 by setting is: under setting [1], < 50 nM; under setting [2], 21.4 nM.

In the case of `Cc1nc2cnc(N(C)C3CCN([C@H]4C[C@@H](OC(F)(F)F)C4)CC3)c(C#N)c2c(=O)n1CC#Cc1ccc(Cl)cc1-c1ccnc2c(C(=O)NS(=O)(=O)c3cccnc3)csc12` [compound 1774], under setting [3], the IC50 was 45 nM.

Take `Cc1nc2cc(C(F)(F)F)c(N3CCN(CCF)CC3)c(C#N)c2c(=O)n1CCOc1ccc(Cl)cc1-c1ccnc2c(C(=O)O)csc12` [compound 655]: the IC50 under setting [1] is < 50 nM and the IC50 under setting [2] was 13.5 nM.

Turning to `Cc1nc2cc(CN(C)C)c(OC(F)F)c(C#N)c2c(=O)n1CCOc1ccc(Cl)cc1-c1ccnc2c(C(=O)O)csc12` [compound 458], the IC50 is, setting by setting: under setting [1], < 50 nM; under setting [2], 36.8 nM.

On to `COCc1cc(-c2cc(Cl)ccc2OCCn2c(C)nc3cc(C(F)(F)F)c(CN4CCN(C)CC4)c(C#N)c3c2=O)c2scc(C(=O)O)c2n1` [compound 489], for which the IC50 under setting [1] is < 50 nM.

In the case of `Cc1nc2c(Cl)ccc(C#N)c2c(=O)n1CCOc1ccc(Cl)cc1-c1ccnc2c(C(=O)O)csc12` [compound 1942], under setting [3], the IC50 was 182 nM.

Consider `Cc1nc2cnc(N(C)C3CCN(CC(=O)C(C)C)CC3)c(C#N)c2c(=O)n1CCOc1ccc(Cl)cc1-c1ccnc2c(C(=O)O)csc12` [compound 1127], for which the IC50 reads like this: under setting [1], < 50 nM; under setting [2], 12.9 nM.

On to `Cc1cc(-c2cc(Cl)ccc2OCCn2c(C)nc3cc(C(F)(F)F)c(-c4ccccn4)c(C#N)c3c2=O)c2sc(C)c(C(=O)O)c2n1` [compound 421], for which, under setting [1], the IC50 is < 50 nM.

Turning to `Cc1nc2cnc(N(C)C3CCN(C(CF)CF)CC3)c(C#N)c2c(=O)n1CCOc1ccc(Cl)cc1-c1ccnc2c(C(=O)O)csc12` [compound 1432], the IC50 under setting [3] is 21.2 nM.

With `Cc1nc2cc(F)c(OC(F)F)c(C#N)c2c(=O)n1CCOc1ccc(Cl)cc1-c1ccnc2c(C(=O)O)csc12` [compound 545], the IC50 was < 50 nM under setting [1] and 7.81 nM under setting [2].

`Cc1cc(-c2cc(Cl)ccc2OCCn2c(C)nc3cc(C(F)(F)F)c(-c4ccnc(C)n4)nc3c2=O)c2scc(C(=O)O)c2n1` [compound 769]: the IC50 is, setting by setting: under setting [1], < 50 nM; under setting [2], 23.9 nM.

On to `Cc1nc2cc(C(F)(F)F)cc(C#N)c2c(=O)n1CCOc1ccc(Cl)cc1-c1snc2c(C(=O)O)csc12` [compound 265], for which the IC50 is 50 to 1000 nM under setting [1] and 77.1 nM under setting [2].

For the compound `Cc1nc2cc(C(F)(F)F)cc(C#N)c2c(=O)n1CCOc1ccc(Cl)cc1-c1ccc(C(=O)O)c2ncsc12` [compound 226], the IC50 is, setting by setting: under setting [1], 50 to 1000 nM; under setting [2], 70.7 nM.

Turning to `Cc1nc2cc(C(F)(F)c3ccncc3)cc(C#N)c2c(=O)n1CCOc1ccc(Cl)cc1-c1ccnc2c(C(=O)O)csc12` [compound 216], the IC50 runs as follows: under setting [1], 50 to 1000 nM; under setting [2], 62.8 nM.

Consider `Cc1nc2cc(C(F)(F)F)c(N3CCN(C4CC4)CC3)c(C#N)c2c(=O)n1CCOc1ccc(Cl)cc1-c1ccnc2c(C(=O)O)csc12` [compound 1291], for which, under setting [3], the IC50 was 41.2 nM.
